Reference: PMC11702208 (RSC Advances, 2025)
Read-outs that look alike come from different tables or passages of the source.

Tests used:
MDA-MB-435 = test: NCI cytotoxicity screen; format: cell-based, human; conditions: Homo sapiens
CAKI-1 = test: NCI cytotoxicity screen; format: cell-based, human; conditions: Homo sapiens
SR = test: NCI cytotoxicity screen; format: cell-based, human; conditions: Homo sapiens
MDA-MB-468 = test: NCI cytotoxicity screen; format: cell-based, human; conditions: Homo sapiens
MDA-MB-231/ATCC = test: NCI cytotoxicity screen; format: cell-based, human; conditions: Homo sapiens, MDA-MB-231
59 cancer cell lines = test: NCI cytotoxicity screen, full panel; format: cell-based, human; conditions: full panel mean-graph midpoint; for CC50: read-out: LC50 MG_MID
PC-3 = test: NCI cytotoxicity screen; format: cell-based, human; conditions: Homo sapiens
HCT-116 = test: NCI cytotoxicity screen; format: cell-based, human; conditions: Homo sapiens
SNB-19 = test: NCI cytotoxicity screen; format: cell-based, human; conditions: Homo sapiens
A549/ATCC = test: NCI cytotoxicity screen; format: cell-based, human; conditions: Homo sapiens, A549
UACC-62 = test: NCI cytotoxicity screen; format: cell-based, human; conditions: Homo sapiens
HCT-15 = test: NCI cytotoxicity screen; format: cell-based, human; conditions: Homo sapiens
K-562 = test: cells; conditions: Homo sapiens, K562
OVCAR-8 = test: NCI cytotoxicity screen; format: cell-based, human; conditions: Homo sapiens
SF-539 = test: NCI cytotoxicity screen; format: cell-based, human; conditions: Homo sapiens
COLO 205 = test: NCI cytotoxicity screen; format: cell-based, human; conditions: Homo sapiens, COLO 205
SNB-75 = test: NCI cytotoxicity screen; format: cell-based, human; conditions: Homo sapiens
MALME-3M = test: NCI cytotoxicity screen; format: cell-based, human; conditions: Homo sapiens, Malme-3M
SK-MEL-2 = test: NCI cytotoxicity screen; format: cell-based, human; conditions: Homo sapiens
M14 = test: NCI cytotoxicity screen; format: cell-based, human; conditions: Homo sapiens
UACC-257 = test: NCI cytotoxicity screen; format: cell-based, human; conditions: Homo sapiens
NCI-H522 = test: NCI cytotoxicity screen; format: cell-based, human; conditions: Homo sapiens
T-47D = test: NCI cytotoxicity screen; format: cell-based, human; conditions: Homo sapiens, T47D
UO-31 = test: NCI cytotoxicity screen; format: cell-based, human; conditions: Homo sapiens
OVCAR-3 = test: NCI cytotoxicity screen; format: cell-based, human; conditions: Homo sapiens, OVCAR-3
HOP-62 = test: NCI cytotoxicity screen; format: cell-based, human; conditions: Homo sapiens
SF-295 = test: NCI cytotoxicity screen; format: cell-based, human; conditions: Homo sapiens
HS 578T = test: NCI cytotoxicity screen; format: cell-based, human; conditions: Homo sapiens, Hs-578T
BT-549 = test: NCI cytotoxicity screen; format: cell-based, human; conditions: Homo sapiens
KM12 = test: NCI cytotoxicity screen; format: cell-based, human; conditions: Homo sapiens, KM12
[1] = tested on: Ovarian cancer subpanel tumor cell lines; test: NCI cytotoxicity screen, subpanel; format: cell-based, human
OVCAR-4 = test: NCI cytotoxicity screen; format: cell-based, human; conditions: Homo sapiens, OVCAR-4
ACHN = test: NCI cytotoxicity screen; format: cell-based, human; conditions: Homo sapiens
NCI/ADR-RES = test: NCI cytotoxicity screen; format: cell-based, human; conditions: Homo sapiens, five-dose
CCRF-CEM = test: NCI cytotoxicity screen; format: cell-based, human; conditions: Homo sapiens
[2] = tested on: NSC lung cancer subpanel tumor cell lines; test: NCI cytotoxicity screen, subpanel; format: cell-based, human
[3] = tested on: Melanoma subpanel tumor cell lines; test: NCI cytotoxicity screen, subpanel; format: cell-based, human
786-0 = test: NCI cytotoxicity screen; format: cell-based, human; conditions: Homo sapiens
SK-MEL-5 = test: NCI cytotoxicity screen; format: cell-based, human; conditions: Homo sapiens
NCI-H322M = test: NCI cytotoxicity screen; format: cell-based, human; conditions: Homo sapiens
DU-145 = test: NCI cytotoxicity screen; format: cell-based, human; conditions: Homo sapiens
RXF 393 = test: NCI cytotoxicity screen; format: cell-based, human; conditions: Homo sapiens
TK-10 = test: NCI cytotoxicity screen; format: cell-based, human; conditions: Homo sapiens
NCI-H23 = test: NCI cytotoxicity screen; format: cell-based, human; conditions: Homo sapiens
SN12C = test: NCI cytotoxicity screen; format: cell-based, human; conditions: Homo sapiens, SN12C
[4] = subpanel value, NSC lung cancer

Question: How did the GI50 (MDA-MB-435) turn out when `C#Cc1cccc(Nc2ncnc3cc(OCCOC)c(OCCOC)cc23)c1` [Erlotinib, reference compound] was run?
Answer: 15.8 µM

Question: And the GI50 (CAKI-1)?
Answer: 100 nM

Question: And the GI50 (SR)?
Answer: 6.3 µM

Question: And the GI50 (MDA-MB-468)?
Answer: 200 nM

Question: And the GI50 (MDA-MB-231/ATCC)?
Answer: 1990 nM

Question: What about the “TGI MG_MID” value (59 cancer cell lines) of the same molecule?
Answer: 66.3 µM

Question: And the “TGI MG_MID” value (59 cancer cell lines; listed as erlotinib)?
Answer: 14.3 µM

Question: And the GI50 (59 cancer cell lines; read-out: GI50 MG_MID)?
Answer: 7.68 µM

Question: And the CC50 (59 cancer cell lines)?
Answer: 95.6 µM

Question: And the CC50 (59 cancer cell lines; listed as erlotinib)?
Answer: 14.3 µM

Question: And the GI50 (PC-3)?
Answer: 50.1 µM

Question: What about the GI50 (HCT-116) of the same molecule?
Answer: 5.01 µM

Question: What about the GI50 (SNB-19) of the same molecule?
Answer: 3.98 µM

Question: And the GI50 (A549/ATCC)?
Answer: 7.94 µM

Question: And the GI50 (UACC-62)?
Answer: 1250 nM

Question: What about the GI50 (HCT-15) of the same molecule?
Answer: 3.16 µM

Question: What about the GI50 (K-562) of the same molecule?
Answer: 15.5 µM

Question: And the GI50 (OVCAR-8)?
Answer: 7.94 µM

Question: And the GI50 (SF-539)?
Answer: 12.6 µM

Question: What about the GI50 (COLO 205) of the same molecule?
Answer: 31.6 µM

Question: And the GI50 (SNB-75)?
Answer: 12.6 µM

Question: And the GI50 (MALME-3M)?
Answer: 5.01 µM

Question: What about the GI50 (SK-MEL-2) of the same molecule?
Answer: 12.6 µM

Question: And the GI50 (M14)?
Answer: 6.3 µM

Question: And the GI50 (UACC-257)?
Answer: 100 µM

Question: What about the GI50 (NCI-H522) of the same molecule?
Answer: 1000 nM

Question: And the GI50 (T-47D)?
Answer: 3.16 µM

Question: What about the GI50 (UO-31) of the same molecule?
Answer: 1990 nM

Question: What about the GI50 (OVCAR-3) of the same molecule?
Answer: 3.16 µM

Question: And the GI50 (HOP-62)?
Answer: 12.6 µM

Question: What about the GI50 (SF-295) of the same molecule?
Answer: 15.8 µM

Question: And the GI50 (HS 578T)?
Answer: 6.3 µM

Question: What about the GI50 (BT-549) of the same molecule?
Answer: 39.8 µM

Question: And the GI50 (KM12)?
Answer: 63.1 µM

Question: What about the CC50 ([1]; Homo sapiens, read-out: LC50) of the same molecule?
Answer: 97.1 µM

Question: What about the GI50 ([1]; subpanel value, Ovarian cancer) of the same molecule?
Answer: 5.52 µM

Question: What about the TGI ([1]; subpanel value, Ovarian cancer) of the same molecule?
Answer: 74.41 µM

Question: And the GI50 (OVCAR-4)?
Answer: 19.9 µM

Question: What about the GI50 (ACHN) of the same molecule?
Answer: 150 nM

Question: And the GI50 (NCI/ADR-RES)?
Answer: 6.3 µM

Question: And the GI50 (CCRF-CEM)?
Answer: 15.8 µM

Question: And the CC50 ([2]; Homo sapiens, read-out: LC50)?
Answer: 97.7 µM

Question: And the GI50 ([2]; Homo sapiens, subpanel value, NSC lung cancer)?
Answer: 13.1 µM

Question: And the GI50 [2, 4]?
Answer: 13.1 µM

Question: And the TGI [2, 4]?
Answer: 73.76 µM

Question: What about the CC50 ([3]; Homo sapiens, read-out: LC50) of the same molecule?
Answer: 93.3 µM

Question: And the GI50 ([3]; Homo sapiens, subpanel value, Melanoma)?
Answer: 23.7 µM

Question: What about the GI50 ([3]; subpanel value, Melanoma) of the same molecule?
Answer: 23.7 µM

Question: What about the TGI ([3]; subpanel value, Melanoma) of the same molecule?
Answer: 77.89 µM

Question: What about the GI50 (786-0) of the same molecule?
Answer: 5.01 µM

Question: What about the GI50 (SK-MEL-5) of the same molecule?
Answer: 15.8 µM

Question: What about the GI50 (NCI-H322M) of the same molecule?
Answer: 50 nM

Question: What about the GI50 (DU-145) of the same molecule?
Answer: 1580 nM

Question: And the GI50 (RXF 393)?
Answer: 6.3 µM

Question: And the GI50 (TK-10)?
Answer: 100 nM

Question: And the GI50 (NCI-H23)?
Answer: 19.9 µM

Question: What about the GI50 (SN12C) of the same molecule?
Answer: 6.3 µM
